IC50 data for one compound are collected here from publication PMC11781080 (RSC Advances, 2025).

Assay [1] has as its system A549 cells (EGFR wild-type non-small-cell lung cancer). The assay can be described thus: MTT cell viability assay, A549 cells. The format is cell-based. The settings on record: Homo sapiens, A549, 72 h, read-out: IC50 A549. For orientation: Tetrazolium assays rely on reduction of a dye to a coloured formazan, in cell work by metabolically active cells.
Assay [2] deals with Vero cells (normal kidney epithelial cell). Put plainly: MTT cell viability assay, Vero cells. The format is cell-based. The settings on record: read-out: IC50 Vero, 72 h, mean ± S.E.M., n = 3.

As a reminder, the IC50 is the midpoint of a concentration-inhibition curve. Take `CN(C)C/C=C/C(=O)Nc1cc2c(Nc3ccc(F)c(Cl)c3)ncnc2cc1O[C@H]1CCOC1` [Afatinib]: the IC50 was determined as 13.1 ± 0.8 µM in assay [1] and 5.77 ± 1.59 µM in assay [2].
